The source of these data is patent publication US20260176284A1, “Compounds with Anti-KRAS Mutated Tumor Activity” (Trasveda Ltd., priority 2022, published 2026).

Series [1] concerns KRAS G12D mutated AGS human gastric adenocarcinoma cells. Put plainly: Proliferation inhibition of KRAS G12D mutant AGS cells, another experiment with similar protocol (includes MRTX1133). The conditions noted are these: Homo sapiens. In kind it is cell-based. As to the method:
In another experiment, using a protocol similar to the one described above, the inhibitory activity of some representative compounds of the present invention against KRAS G12D mutated AGS human gastric adenocarcinoma cells was determined.
The synthesis of compound MRTX1133 was performed according to the method described in J. Med. Chem. 2022, 65, 4, 3123-3133.

In series [2] the test system is KRAS-G12D mutated human colon carcinoma cells GP2d. Nature of the series: Antitumor effect, subcutaneous xenograft of KRAS-G12D mutated human colon carcinoma cells GP2d. Format: in vivo. The conditions noted are these: BALB/c nude mice, 10 mg/kg, gavage, twice a day; for TGI (%): Day 21. As for the experimental part:
GP2d cells were purchased from Nanjing Kebai Biotechnology Co., Ltd. BALB/c nude mice, female, were purchased from Jiangsu GemPharmatech LLC. GP2d cells were cultured in culture medium containing DMEM and 10% FBS. The cells in the logarithmic growth phase were collected and resuspended in PBS to an appropriate concentration for subcutaneous tumor inoculation in mice. The experimental mice were subcutaneously inoculated on the right posterior side of the back. The inoculation dose of GP2d cells was 1×10^7 cells per mouse, and the cells were resuspended in a 1:1 mixture of PBS and Matrigel (the inoculation volume was 0.1 mL). When the average tumor volume grew to 150 mm^3, the mice were randomly grouped for administration according to the tumor size and body weight. Administration was started immediately after grouping, and the day of administration was regarded as day 0. The administration was carried out twice a day by gavage, at a dose of 10 mg/kg or a solvent control (0.5% Tween 80+99.5% of (0.5% MC (400 cp))). During the experiment, the body weight of the mice and the size of the tumors were measured twice a week.
The formula for calculating the tumor size: Tumor volume (mm^3)=0.5×(long diameter of tumor×(short diameter of tumor)^2).
Relative tumor inhibition rate TGI (%): TGI %=[1−(average tumor volume at the end of administration of the treatment group−average tumor volume at the beginning of administration of the treatment group)/(average tumor volume at the end of administration of the vehicle control group −average tumor volume at the beginning of administration of the vehicle control group)]×100%.
(In general: In xenograft studies the graft and the host belong to different species.)

The subject of series [3] is human pancreatic cancer cells HPAC (carrying KRas G12D mutant protein). Put plainly: In vivo pharmacodynamics, subcutaneous xenograft of human pancreatic cancer cells HPAC. The settings on record: NOD/SCID mice, 50 mpk, PO; for Tumor volume (mm3) (Day 20): BID × 21; for TGI (%): BID × 21, Day 20. As to the method:
The following materials were used in this experiment: NOD/SCID mice, 6-8 weeks old, female, Jiangsu Ji Cai Yao Kang Biotechnology Co., Ltd.; HPAC cells (carrying KRas G12D mutant protein, ATCC); Captisol (Wuhan Fengyao Tonghui Chemical Products Co., Ltd., Cas #182410-00-0); Sodium acetate (aladdin); MC (sigma, 9004-67-5).
The experiment was carried out as follows: Female NOD/SCID mice aged 6-8 weeks were subcutaneously inoculated with 1-10^7 HPAC cells on the right posterior side of the back, with an inoculation volume of 0.1 mL. When the tumors grew to an average volume of 150 mm^3, the mice were randomly grouped for administration according to the tumor size and body weight. The day of administration was regarded as day 0. The administration was carried out once a day. The test compound was administered by tail vein injection or gavage, with 5 mice in each group at a dose of 10 mg/kg. The control group was administered with an equal volume of the solvent control by tail vein injection or gavage.
During the experiment, the tumor volume and body weight were measured twice a week. The formula for calculating the tumor volume was: Tumor volume (mm^3)=0.5×(tumor major axis×tumor minor axis^2). The average tumor inhibition rate TGI %=[(average tumor volume of the control group−average initial tumor volume of the control group)−(average tumor volume of the administration group−average initial tumor volume of the administration group)]/(average tumor volume of the control group−average initial tumor volume of the control group).

A short description of series [4]: Mouse pharmacokinetics (IV and PO). In kind it is in vivo. The conditions noted are these: 10 mg/kg, male CD-1 mice, PO (gavage), 1 mg/mL at 10 mL/kg, plasma. As for the experimental part:
The pharmacokinetic properties of the compounds of the present invention were evaluated through a mouse pharmacokinetic experiment.
Male CD-1 mice, aged 6-8 weeks old, were purchased from Zhejiang Vital River Laboratory Animal Co., Ltd.
IV administration group: The compound was formulated into a sodium acetate buffer solution (10 mM sodium acetate solution, adjusted to pH 4.0 with acetic acid) containing 20% Captisol (sulfobutyl β-cyclodextrin) so that the final concentration of each compound was 0.6 mg/mL. The drug formulation was injected into the tail vein of CD-1 mice at an injection volume of 5 mL/kg. After administration, blood samples were collected from the submandibular vein or by other appropriate methods at 5 min, 15 min, 30 min, 1 h, 2 h, 4 h, 6 h, 8 h, and 24 h. The blood samples were centrifuged at a low temperature for 6 minutes, and the plasma was collected and stored at −80° C. for testing. The PO administration group formulated the compound into a solvent of 0.5% Tween 80+99.5% (0.5% MC (400 cp)) or 5% DMSO+95% (0.5% MC (400 cp)) so that the final concentration of each compound was 1 mg/mL. The drug formulation was administered to CD-1 mice by gavage at a volume of 10 mL/kg. After administration, blood samples were collected from the submandibular vein or by other appropriate methods at 15 min, 30 min, 1 h, 2 h, 4 h, 6 h, 8 h, and 24 h. The blood samples were centrifuged at a low temperature for 6 minutes, and the plasma was collected and stored at −80° C. for testing.
10 μL of the plasma sample was taken, and 200 μL of methanol containing an internal standard was added as a precipitating agent to precipitate plasma proteins and extract the compounds to be tested in the plasma. After centrifugation at a low temperature, 10 μL of the supernatant was injected, and the drug blood concentration was analyzed by LC-MS/MS. The pharmacokinetic parameters were calculated using Winnonlin based on the drug concentration data at different time points.

Broadly, the IC50 is the concentration that inhibits the measured activity by half. A lower IC50 goes with greater potency in that assay. For `CN1CC[C@H](C(F)F)[C@](C)(COc2nc(N3CC4CCC(C3)N4)c3cc(Cl)c(-c4c(F)ccc5sc(N)c(C#N)c45)c(F)c3n2)C1` (single isomer, unassigned) [Example 325-1], half-maximal inhibition in series [1] (IC50) was put at 2 nM. Moreover, in series [2], the “Tumor volume (mm3) (Day 21)” value is on record as 228 mm3 and the “TGI (%)” value is reported as 91%.
Compound `C#Cc1c(F)ccc2cc(O)cc(-c3c(F)cc4c(N5CC6CCC(C5)N6)nc(OC[C@]5(C)CN(C)CC/C5=C\F)nc4c3F)c12` (atropisomer, axis not shown; (Ra)) [Example 77, (Ra)-4-(4-((1R,5S)-3,8-diazabicyclo[3.2.1]octan-3-yl)-6,8-difluoro-2-(((S,E) 4-(fluoromethylene)-1,3-dimethylpiperidin-3-yl)methoxy)quinazolin-7-yl)-5-ethynyl-6-fluoronaphthalen-2-ol] registered an IC50 in series [1] of 4 nM. In series [3], the “Tumor volume (mm3) (Day 20)” value is 255 mm3 and the “TGI (%)” value came out at 83%.
With `[2H]C([2H])([2H])N1CC[C@H](C(F)F)[C@](C)(C([2H])([2H])Oc2nc(N3CC4CCC(C3)N4)c3cc(Cl)c(-c4cccc5sc(N)c(C#N)c45)c(F)c3n2)C1` (single isomer, unassigned) [Example 315-1], in series [2], the “Tumor volume (mm3) (Day 21)” value is listed as 325 mm3 and the “TGI (%)” value is 80%.
A word on the AUC(0-inf): it is total exposure, with the tail of the curve extrapolated. Higher therefore signals high exposure. As a reminder, the AUC(0-t) is the area under the concentration-time curve up to a stated or last time point. Read a low AUC(0-t) as less exposure. As usually defined, the half-life is the time needed for the level to fall by half in the phase considered. A higher half-life goes with slow decline. `[2H]C([2H])([2H])N1CC/C(=C\F)[C@](C)(COc2nc(N3C[C@H]4CC[C@@H](C3)N4)c3cnc(-c4cc(O)cc5ccc(F)c(C#C)c45)c(F)c3n2)C1` [Example 306, 4-(4-((1R,5S)-3,8-diazabicyclo[3.2.1]octan-3-yl)-8-fluoro-2-(((S,E)-4-(fluoromethylene)-3-methyl-1-(methyl-d3)piperidin-3-yl)methoxy)pyrido[4,3-d]pyrimidin-7-yl)-5-ethynyl-6-fluoronaphthalen-2-ol] showed an IC50 in series [1] of 5 nM. In series [4], this compound gave an area under the curve AUC(0-inf) of 801 ng·h/mL, an AUC(0-t) of 759 ng·h/mL and a half-life of 7.17 h.
With `CN1CC/C(=C\F)[C@](C)(COc2nc(N3CC4CCC(C3)N4)c3cc(Cl)c(-c4cccc5sc(N)c(C#N)c45)c(F)c3n2)C1` (single isomer, unassigned) [Example 313-1], in series [2], the “Tumor volume (mm3) (Day 21)” value was determined as 256 mm3 and the “TGI (%)” value is 88%.
As to `C#Cc1c(F)ccc2cc(O)cc(-c3nc(OC)c4c(N5C[C@H]6CC[C@@H](C5)N6)nc(OC[C@]5(C)CN(C)CC[C@@H]5C(F)F)nc4c3F)c12` [Example 261, 4-(4-((1R,5S)-3,8-diazabicyclo[3.2.1]octan-3-yl)-2-(((3S,4S)-4-(difluoromethyl)-1,3-dimethylpiperidin-3-yl)methoxy)-8-fluoro-5-methoxypyrido[4,3-d]pyrimidin-7-yl)-5-ethynyl-6-fluoronaphthalen-2-ol], the IC50 in series [1] is 2 nM. For the same compound, in series [3], the “Tumor volume (mm3) (Day 20)” value is 117 mm3 and the “TGI (%)” value came to 105%.
In turn, `C#Cc1c(F)ccc2cc(O)cc(-c3nc(C#C)c4c(N5CC6CCC(C5)N6)nc(OC[C@]5(C)CN(C)CC/C5=C\F)nc4c3F)c12` [Example 332] had an IC50 in series [1] of 1 nM. For the same compound, in series [2], the “Tumor volume (mm3) (Day 21)” value was 419 mm3 and the “TGI (%)” value stood at 70%.
In turn, `C#Cc1c(F)ccc2cc(O)cc(-c3c(F)cc4c(N5CC6CCC(C5)N6)nc(OC[C@]5(C)CN(C)CC[C@@H]5C(F)F)nc4c3F)c12` (atropisomer, axis not shown; (Ra)) [Example 46-3, (Ra)-4-(4-((1R,5S)-3,8-diazabicyclo[3.2.1]octan-3-yl)-2-(((3S,4S)-4-(difluoromethyl)-1,3-dimethylpiperidin-3-yl)methoxy)-6,8-difluoroquinazolin-7-yl)-5-ethynyl-6-fluoronaphthalen-2-ol] had an IC50 in series [1] of 7 nM. In series [4], this compound showed an AUC(0-inf) of 414 ng·h/mL, an AUC(0-t) of 384 ng·h/mL and a half-life of 10.8 h. Besides, in series [3], the “Tumor volume (mm3) (Day 20)” value stood at 135 mm3 and the “TGI (%)” value was found to be 102%.
In series [1], `C#Cc1c(F)ccc2cc(O)cc(-c3ncc4c(N5C[C@H]6CC[C@@H](C5)N6)nc(OC[C@]5(C)CN(C)CC[C@@H]5C(F)F)nc4c3F)c12` [Example 105, 4-(4-((1R,5S)-3,8-diazabicyclo[3.2.1]octan-3-yl)-2-(((3S,4S)-4-(difluoromethyl)-1,3-dimethylpiperidin-3-yl)methoxy)-8-fluoropyrido[4,3-d]pyrimidin-7-yl)-5-ethynyl-6-fluoronaphthalen-2-ol] came in with an IC50 of 6 nM. Moreover, in series [3], the “Tumor volume (mm3) (Day 20)” value is 122 mm3 and the “TGI (%)” value was found to be 104%.
`[2H]C([2H])([2H])N1CC/C(=C\F)[C@](C)(C([2H])([2H])Oc2nc(N3C[C@H]4CC[C@@H](C3)N4)c3cnc(-c4cc(O)cc5ccc(F)c(C#C)c45)c(F)c3n2)C1` [Example 304, 4-(4-((1R,5S)-3,8-diazabicyclo[3.2.1]octan-3-yl)-8-fluoro-2-(((S,E)-4-(fluoromethylene)-3-methyl-1-(methyl-d3)piperidin-3-yl)methoxy-d2)pyrido[4,3-d]pyrimidin-7-yl)-5-ethynyl-6-fluoronaphthalen-2-ol] returned an IC50 in series [1] of 2 nM. In series [4], the AUC(0-inf) was determined as 1500 ng·h/mL, the area under the curve AUC(0-t) came to 1420 ng·h/mL and the half-life was 8.74 h.
Take `C#Cc1c(F)ccc2cc(O)cc(-c3nc(OC)c4c(N5C[C@H]6CC[C@@H](C5)N6)nc(OC[C@]5(C)CN(C)CC/C5=C\F)nc4c3F)c12` [Example 265, 4-(4-((1R,5S)-3,8-diazabicyclo[3.2.1]octan-3-yl)-8-fluoro-2-(((S,E)-4-(fluoromethylene)-1,3-dimethylpiperidin-3-yl)methoxy)-5-methoxypyrido[4,3-d]pyrimidin-7-yl)-5-ethynyl-6-fluoronaphthalen-2-ol]: in series [1], inhibition was half-maximal at 2 nM (IC50). In series [3], the “Tumor volume (mm3) (Day 20)” value came to 113 mm3 and the “TGI (%)” value is 106%.
